From BigSolDB 2.1

C(=Cc1ccc(-c2nc3ccccc3o2)cc1)c1ccc(-c2nc3ccccc3o2)cc1
solubility (mole fraction)
Settings	323.15 K	338.15 K	353.15 K	368.15 K	383.15 K
in DMF	3.02e-06	7.12e-06	1.04e-05	1.57e-05	2.63e-05
in NMP	3.18e-06	7.96e-06	1.37e-05	2.44e-05	3.99e-05
in chlorobenzene	8.89e-06	2.1e-05	3.65e-05	4.9e-05	5.59e-05
in water	1.3e-07	3.39e-07	5.56e-07	6.6e-07	–
